What all share (assay type): functional
Experiment [1] has as its system Acinetobacter baumannii. The experiment in a line: Antibacterial activity against Acinetobacter baumannii AB5075 assessed as reduction in microbial growth incubated for 16 hrs by broth microdilution method. On the technique in general: Broth dilution looks for growth in wells or tubes with falling amounts of substance.
Experiment [2] relates to Acinetobacter baumannii. The experiment in a line: Potentiation of clarithromycin-induced antibacterial activity against Acinetobacter baumannii 3785 assessed as fold reduction in clarithromycin MIC at 10 uM incubated for 16 hrs by broth microdilution method.
For experiment [3], the system named is Acinetobacter baumannii. The experiment in a line: Potentiation of clarithromycin-induced antibacterial activity against Acinetobacter baumannii 4857 assessed as fold reduction in clarithromycin MIC at 10 uM incubated for 16 hrs by broth microdilution method.
Experiment [4] concerns Acinetobacter baumannii. The experiment in a line: Potentiation of clarithromycin-induced antibacterial activity against Acinetobacter baumannii 4957 assessed as fold reduction in clarithromycin MIC at 10 uM incubated for 16 hrs by broth microdilution method.
The subject of experiment [5] is Acinetobacter baumannii. The experiment in a line: Potentiation of clarithromycin-induced antibacterial activity against Acinetobacter baumannii 4878 assessed as fold reduction in clarithromycin MIC at 10 uM incubated for 16 hrs by broth microdilution method.
Experiment [6] has as its system Acinetobacter baumannii. The experiment can be described thus: Potentiation of clarithromycin-induced antibacterial activity against Acinetobacter baumannii AB5075 assessed as fold reduction in clarithromycin MIC at 5 uM incubated for 16 hrs in presence of clarithromycin by broth microdilution method.
The subject of experiment [7] is Acinetobacter baumannii. The experiment can be described thus: Potentiation of clarithromycin-induced antibacterial activity against Acinetobacter baumannii 5197 assessed as fold reduction in clarithromycin MIC at 10 uM incubated for 16 hrs by broth microdilution method.
Experiment [8] relates to Acinetobacter baumannii. The experiment can be described thus: Potentiation of clarithromycin-induced antibacterial activity against Acinetobacter baumannii 3806 assessed as fold reduction in clarithromycin MIC at 10 uM incubated for 16 hrs by broth microdilution method.
Experiment [9] concerns Acinetobacter baumannii. The experiment in a line: Potentiation of clarithromycin-induced antibacterial activity against Acinetobacter baumannii 5711 assessed as fold reduction in clarithromycin MIC at 10 uM incubated for 16 hrs by broth microdilution method.
The subject of experiment [10] is Acinetobacter baumannii. The experiment in a line: Potentiation of clarithromycin-induced antibacterial activity against Acinetobacter baumannii 5256 assessed as fold reduction in clarithromycin MIC at 10 uM incubated for 16 hrs by broth microdilution method.
Experiment [11] deals with Acinetobacter baumannii. The experiment can be described thus: Potentiation of clarithromycin-induced antibacterial activity against Acinetobacter baumannii AB5075 assessed as fold reduction in clarithromycin MIC at 20 uM incubated for 16 hrs in presence of clarithromycin by broth microdilution method.
Experiment [12] relates to Acinetobacter baumannii. The experiment in a line: Potentiation of clarithromycin-induced antibacterial activity against Acinetobacter baumannii 4490 assessed as fold reduction in clarithromycin MIC at 10 uM incubated for 16 hrs by broth microdilution method.
The test system of experiment [13] is Acinetobacter baumannii. The experiment in a line: Potentiation of clarithromycin-induced antibacterial activity against Acinetobacter baumannii AB5075 assessed as fold reduction in clarithromycin MIC at 30 uM incubated for 16 hrs in presence of clarithromycin by broth microdilution method.
For experiment [14], the system named is Acinetobacter baumannii. The experiment can be described thus: Potentiation of clarithromycin-induced antibacterial activity against Acinetobacter baumannii 4026 assessed as fold reduction in clarithromycin MIC at 10 uM incubated for 16 hrs by broth microdilution method.
Experiment [15] relates to Acinetobacter baumannii. The experiment can be described thus: Potentiation of clarithromycin-induced antibacterial activity against Acinetobacter baumannii 3927 assessed as fold reduction in clarithromycin MIC at 10 uM incubated for 16 hrs by broth microdilution method.
Experiment [16] concerns Acinetobacter baumannii. The experiment in a line: Potentiation of clarithromycin-induced antibacterial activity against Acinetobacter baumannii AB5075 assessed as clarithromycin MIC at 5 uM incubated for 16 hrs by broth microdilution method (reference value: […] ug/ml).
For experiment [17], the system named is Acinetobacter baumannii. The experiment can be described thus: Potentiation of clarithromycin-induced antibacterial activity against Acinetobacter baumannii AB5075 assessed as clarithromycin MIC at 7.5 uM incubated for 16 hrs by broth microdilution method (reference value: […] ug/ml).
In experiment [18] the test system is Acinetobacter baumannii. The experiment in a line: Potentiation of clarithromycin-induced antibacterial activity against Acinetobacter baumannii 4269 assessed as fold reduction in clarithromycin MIC at 10 uM incubated for 16 hrs by broth microdilution method.
Experiment [19] relates to Acinetobacter baumannii. The experiment can be described thus: Potentiation of clarithromycin-induced antibacterial activity against Acinetobacter baumannii AB5075 assessed as clarithromycin MIC at […] incubated for 16 hrs by broth microdilution method (reference value: […] ug/ml). Conditions: dose 30 µM.
Experiment [20] relates to Acinetobacter baumannii. The experiment in a line: Potentiation of clarithromycin-induced antibacterial activity against Acinetobacter baumannii 4027 assessed as fold reduction in clarithromycin MIC at 10 uM incubated for 16 hrs by broth microdilution method.
Experiment [21] relates to Acinetobacter baumannii. The experiment can be described thus: Potentiation of clarithromycin-induced antibacterial activity against Acinetobacter baumannii 4991 assessed as fold reduction in clarithromycin MIC at 10 uM incubated for 16 hrs by broth microdilution method.
In experiment [22] the test system is Acinetobacter baumannii. The experiment in a line: Potentiation of clarithromycin-induced antibacterial activity against Acinetobacter baumannii 4456 assessed as fold reduction in clarithromycin MIC at 10 uM incubated for 16 hrs by broth microdilution method.
Experiment [23] deals with Acinetobacter baumannii. The experiment in a line: Potentiation of clarithromycin-induced antibacterial activity against Acinetobacter baumannii 4448 assessed as fold reduction in clarithromycin MIC at 10 uM incubated for 16 hrs by broth microdilution method.
The test system of experiment [24] is Acinetobacter baumannii. The experiment in a line: Potentiation of clarithromycin-induced antibacterial activity against Acinetobacter baumannii AB5075 assessed as fold reduction in clarithromycin MIC at 7.5 uM incubated for 16 hrs in presence of clarithromycin broth microdilution method.
The test system of experiment [25] is Acinetobacter baumannii. The experiment in a line: Potentiation of clarithromycin-induced antibacterial activity against Acinetobacter baumannii AB5075 assessed as clarithromycin MIC at 10 uM incubated for 16 hrs by broth microdilution method (reference value: […] ug/ml).
For experiment [26], the system named is Acinetobacter baumannii. The experiment can be described thus: Potentiation of clarithromycin-induced antibacterial activity against Acinetobacter baumannii AB5075 assessed as clarithromycin MIC at 20 uM incubated for 16 hrs by broth microdilution method (reference value: […] ug/ml).
Experiment [27] relates to Acinetobacter baumannii. The experiment can be described thus: Potentiation of clarithromycin-induced antibacterial activity against Acinetobacter baumannii 4498 assessed as fold reduction in clarithromycin MIC at 10 uM incubated for 16 hrs by broth microdilution metho.
Experiment [28] has as its system Acinetobacter baumannii. The experiment can be described thus: Potentiation of clarithromycin-induced antibacterial activity against Acinetobacter baumannii 3560 assessed as fold reduction in clarithromycin MIC at 10 uM incubated for 16 hrs by broth microdilution method.
The subject of experiment [29] is Acinetobacter baumannii. The experiment can be described thus: Potentiation of clarithromycin-induced antibacterial activity against Acinetobacter baumannii 4025 assessed as fold reduction in clarithromycin MIC at 10 uM incubated for 16 hrs by broth microdilution method.
The subject of experiment [30] is Acinetobacter baumannii. The experiment in a line: Potentiation of clarithromycin-induced antibacterial activity against Acinetobacter baumannii AB5075 assessed as fold reduction in clarithromycin MIC at 10 uM incubated for 16 hrs in presence of clarithromycin by broth microdilution method.
Experiment [31] relates to Acinetobacter baumannii. The experiment in a line: Potentiation of clarithromycin-induced antibacterial activity against Acinetobacter baumannii 4052 assessed as fold reduction in clarithromycin MIC at 10 uM incubated for 16 hrs by broth microdilution method.
The test system of experiment [32] is Acinetobacter baumannii. The experiment can be described thus: Potentiation of clarithromycin-induced antibacterial activity against Acinetobacter baumannii 8967 assessed as fold reduction in clarithromycin MIC at 10 uM incubated for 16 hrs by broth microdilution method.
Experiment [33] relates to Acinetobacter baumannii. The experiment can be described thus: Potentiation of clarithromycin-induced antibacterial activity against Acinetobacter baumannii 5001 assessed as fold reduction in clarithromycin MIC at 10 uM incubated for 16 hrs by broth microdilution method.
Experiment [34] concerns Acinetobacter baumannii. The experiment can be described thus: Potentiation of clarithromycin-induced antibacterial activity against Acinetobacter baumannii 4795 assessed as fold reduction in clarithromycin MIC at 10 uM incubated for 16 hrs by broth microdilution method.
For experiment [35], the system named is Acinetobacter baumannii. The experiment in a line: Potentiation of clarithromycin-induced antibacterial activity against Acinetobacter baumannii AB5075 assessed as fold reduction in clarithromycin MIC at 30 uM after 2 to 9 days by broth microdilution method. As to conditions: time day 2-9.
The test system of experiment [36] is Acinetobacter baumannii. The experiment can be described thus: Potentiation of clarithromycin-induced antibacterial activity against Acinetobacter baumannii AB5075 assessed as clarithromycin MIC at 30 uM by CLSI based microdilution method (reference value: […] ug/ml).
The test system of experiment [37] is Acinetobacter baumannii. The experiment in a line: Potentiation of clarithromycin-induced antibacterial activity against Acinetobacter baumannii AB5075 assessed as fold reduction in clarithromycin MIC at 30 uM by broth microdilution method (reference value: 512 ug/ml).
In experiment [38] the test system is Acinetobacter baumannii. The experiment can be described thus: Potentiation of clarithromycin-induced antibacterial activity against Acinetobacter baumannii AB5075 assessed as assessed as fold reduction in clarithromycin MIC at 10 uM by CLSI based microdilution method.
For experiment [39], the system named is Acinetobacter baumannii. The experiment can be described thus: Potentiation of clarithromycin-induced antibacterial activity against Acinetobacter baumannii AB5075 assessed as clarithromycin MIC at 10 uM by CLSI based microdilution method (reference value: […] ug/ml).
For experiment [40], the system named is Acinetobacter baumannii. The experiment can be described thus: Antibacterial activity against Acinetobacter baumannii AB5075 assessed as reduction in microbial growth by CLSI based microdilution method.
The subject of experiment [41] is Acinetobacter baumannii. The experiment in a line: Potentiation of clarithromycin-induced antibacterial activity against Acinetobacter baumannii AB5075 assessed as clarithromycin MIC at 30 uM after 2 to 9 days by broth microdilution method (reference value: […] ug/ml). As to conditions: time day 2-9.

In general, MIC refers to the smallest concentration in the dilution series that meets the test's criterion for growth inhibition. In the case of `Cl.Nc1nc(-c2ccc(NC(=O)c3ccc(Cl)c(Cl)c3)cc2F)c[nH]1`, the minimum inhibitory concentration (MIC) in the experiment with Acinetobacter baumannii [1] is over 200 µM; in the experiment on Acinetobacter baumannii [16] it was 8 µg/mL; in the experiment on Acinetobacter baumannii [17], 1 µg/mL; in the experiment on Acinetobacter baumannii [19], 0.5 µg/mL; in the experiment on Acinetobacter baumannii [25], 0.5 µg/mL; in the experiment on Acinetobacter baumannii [26], 0.5 µg/mL. Further, the “fold change (FC)” value is listed as 8 in the experiment with Acinetobacter baumannii [2]; 8 in the experiment with Acinetobacter baumannii [3]; 8 in the experiment on Acinetobacter baumannii [4]; 8 in the experiment with Acinetobacter baumannii [5]; 4 with Acinetobacter baumannii [6]; 8 with Acinetobacter baumannii [7]. In addition, the “fold change (FC)” value in the experiment on Acinetobacter baumannii [8] worked out at 8; with Acinetobacter baumannii [9] it was 8; with Acinetobacter baumannii [10] it was 8; in the experiment on Acinetobacter baumannii [11], 64; in the experiment with Acinetobacter baumannii [12] it was 8; with Acinetobacter baumannii [13] it was 64. Besides, the “fold change (FC)” value with Acinetobacter baumannii [14], with Acinetobacter baumannii [15], in the experiment with Acinetobacter baumannii [18], in the experiment on Acinetobacter baumannii [20], in the experiment with Acinetobacter baumannii [21] and in the experiment with Acinetobacter baumannii [22] was 8 each time. Also, the “fold change (FC)” value was found to be 8 in the experiment on Acinetobacter baumannii [23]; 32 in the experiment on Acinetobacter baumannii [24]; 8 in the experiment with Acinetobacter baumannii [27]; 8 in the experiment with Acinetobacter baumannii [28]; 8 with Acinetobacter baumannii [29]; 64 in the experiment on Acinetobacter baumannii [30]. Besides, the “fold change (FC)” value in the experiment on Acinetobacter baumannii [31], in the experiment on Acinetobacter baumannii [32], in the experiment on Acinetobacter baumannii [33] and with Acinetobacter baumannii [34] was 8 each time.

As for `Cl.Nc1nc(-c2ccc(NC(=O)c3cc(Cl)cc(Cl)c3)cc2)c[nH]1`, the figures for the “fold change (FC)” value in the experiment on Acinetobacter baumannii [35] and in the experiment with Acinetobacter baumannii [38] were 128 and 16, respectively. The MIC with Acinetobacter baumannii [36] is 0.25 µg/mL; with Acinetobacter baumannii [37], 2 µg/mL; in the experiment on Acinetobacter baumannii [39], 2 µg/mL; with Acinetobacter baumannii [40] it was 100 µM; in the experiment on Acinetobacter baumannii [41], 0.25 µg/mL.

The record behind these values is ChEMBL document CHEMBL4725412, “Augmenting the Activity of Macrolide Adjuvants against Acinetobacter baumannii” (2020).
